Here are results for one compound from patent US20240376085A1 (Janssen Pharmaceutica NV, priority 2021, published 2024).

The term IC50 denotes the midpoint of a concentration-inhibition curve. Low readings indicate greater potency in that assay, high ones weaker potency in that assay.

Molecules are shown by their SMILES.

Experiment [1] addresses T1, IL-17A : IL-17RA binding (Homo sapiens, UniProt Q16552, K93Q).
T1 construct: Name: IL-17A-Flag
Put plainly: IL-17A(FLAG-tagged):IL-17RA(His-tagged) binding disruption Eu-HTRF assay, Protocol 1. The conditions noted are these: FLAG-IL-17A 2.5 nM at 2x final concentration; average if tested more than once. The essentials:
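IC50 came from a one-site competition fit of the acceptor/donor (665/620 nm) HTRF ratio. His-tagged IL-17RA, Eu-anti-FLAG and D2-anti-His were added after a 1 h rt compound preincubation with FLAG-tagged IL-17A dimer in PBS/0.01% Triton X-100, followed by 2 h at rt before reading.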

In experiment [2] the target is T1, IL-17A : IL-17RA binding. Put plainly: IL-17A(FLAG-tagged):IL-17RA(His-tagged) binding disruption Eu-HTRF assay, Protocol 2. The conditions noted are these: FLAG-IL-17A 1 nM at 2x final concentration; average if tested more than once. An excerpt: An antibody directed against the FLAG tag of IL-17A (SEQ ID NO: 1) is labeled with the HTRF donor chromophore (Europium-cryptate). IL-17A is present as a dimer that is “locked into” this quaternary structure due to the formation of loop-spanning […] disulfide bridges. The construct of IL-17RA used in the assay excludes the […] portion of the receptor and is fused to a C-terminal 10×His tag (SEQ ID NO:2). An antibody directed against the His tag of the IL-17RA chimera is labeled with the HTRF acceptor chromophore (“D2”). The fluorescence-resonance energy transfer (FRET) depends on the vicinity of the donor chromophore to the acceptor, and interruption of the binding between the IL-17A and IL-17RA causes the reduction/loss of FRET. Therefore, this assay allows to evaluate the compound effect on the binding IL-17A and IL-17RA by monitoring the fluorescence intensity of donor vs acceptor. The assay was run using either Protocol 1 or Protocol 2 as described below.
Protocol 2. 40 nl of 2-fold serial diluted compound solution for total 22 dilution points is added into each well of a 1536-well, white, low-volume, non-binding plate (Greiner #782904), then 2 μl of FLAG tagged IL-17A at 2× final concentration (1 nM) in solution of PBS+0.01% Triton-X100 is added to each well. The assay plate is briefly centrifuged then incubated for 1 h at rt. A mixed solution is prepared containing 2×5 nM 10HIS×IL-17RA, 2×2.5 nM Eu-anti-FLAG (CISBIO), 2×5 nM D2-anti-HIS (CISBIO) in PBS+0.01% Triton-X100+200 mM Potassium Fluoride (Sigma 60238) and 2 μl of mix is added to each well of the assay plate. The plate is briefly centrifuged then incubated for 2 h at rt. The HTRF intensities at the wavelength of donor (615 nm) and acceptor (665 nm) are measured using BMG Pherastar. The ratio between intensities at two wavelengths is calculated and plotted against the compound concentration and the data is fitted to a one-site competition model to yield IC50 of the compound.
For orientation: TR-FRET usually uses a lanthanide donor and a delayed reading to cut background.

The subject of experiment [3] is IL-17A-induced G-CSF production in human normal keratinocyte (NHK). Put plainly: NHK assay: IL-17A-induced G-CSF production in normal human keratinocytes. In kind it is cell-based. The conditions noted are these: Homo sapiens, Keratinocyte, 24 h, IL-17A 5 ng/mL, average if tested more than once. Put shortly:
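Compound titrations are first mixed with recombinant human IL-17A for 1 h at room temperature. The mixture goes onto adult normal human keratinocytes (final IL-17A 5 ng/mL, 5% FBS, 0.2% DMSO) for 24 h at 37 °C. Secreted G-CSF is then measured by HTRF and IC50 fitted.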

T1 sequence (Q16552 with tags, fused parts or gaps K93Q): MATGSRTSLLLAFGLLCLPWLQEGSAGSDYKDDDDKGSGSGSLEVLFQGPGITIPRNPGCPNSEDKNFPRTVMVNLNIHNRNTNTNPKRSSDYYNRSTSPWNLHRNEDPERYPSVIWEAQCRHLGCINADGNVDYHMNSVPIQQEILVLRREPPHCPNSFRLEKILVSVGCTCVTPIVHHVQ

For the compound `Cc1nonc1C(=O)N[C@@H](CO[C@@H](C)C(F)(F)F)c1nc2ccc([C@H](NC(=O)CC3CC(F)(F)C3)C3CC3)cc2[nH]1` (relative stereo) [Example 151, N—((R*)-1-(6-((R)-Cyclopropyl(2-(3,3-difluorocyclobutyl)acetamido)methyl)-1H-benzo[d]imidazol-2-yl)-2-(((S*)-1,1,1-trifluoropropan-2-yl)oxy)ethyl)-4-methyl-1,2,5-oxadiazole-3-carboxamide], the values for the half-maximal inhibitory concentration (IC50) (at IL-17A : IL-17RA binding [1]; at IL-17A : IL-17RA binding [2]; in experiment [3]) were < 50 nM, 50 to 100 nM and > 100 nM, respectively.
